Data reported in US7893271B2, “Benzimidazole carbamates and (thio) carbamates, and the synthesis and use thereof” (Intervet International B.V., priority 2005, dated 2011).
In brackets after ≈: the same amount, converted by molar mass. Several values for one entry are separate records, joined by “and”; a condition that tells them apart may be missing. Identical values can stand only once. Like-named read-outs stand apart in the source and are kept apart here. One block for each compound: values may come before it.

Experiments:
[1] = solubility in water of compounds of the invention
T. colubriformis = experiment: anthelmintic efficacy in animals experimentally infected with T. colubriformis; format: in vivo, Meriones unguiculatus
Experimental: (§1) The compounds were tested at doses of 3 mg/kg bodyweight (BW), 1 mg/kg BW and 0.3 mg/kg BW.
(§2) The animals were orally infected L3-larvae of each T. axei and T. colubriformis. On D 19 post infectionem (PI) animals were treated once IP, SC or PO with the test compounds in 10% DMF/90% water a dose of 3 mg/kg BW, 1 mg/kg BW or 0.3 mg/kg BW. Three days after treatment animals were necropsied and worm burden in stomach and small intestine was determined. Efficacy was defined as the reduction of the mean worm count (geometric mean) in the treatment groups in comparison to the control group. The dose-response relationship was investigated by calculating Pearson's coefficient of correlation.

Haemonchus contortus = experiment: anthelmintic efficacy in animals experimentally infected with Haemonchus contortus; format: in vivo, Meriones unguiculatus
Experimental: as §1
The animals were orally infected with L3-larvae of H. contortus. On D 10 post infectionem (PI) animals were treated once IP, SC or PO with the test compounds in 10% DMF/90% water at doses of 3.0 mg/kg BW, 1.0 mg/kg BW or 0.3 mg/kg BW. Three days after treatment animals were necropsied and larvae burden in stomachs was determined. Efficacy was defined as the reduction of the mean larvae count (geometric mean) in the treatment groups in comparison to the control group. The dose-response relationship was investigated by calculating Pearson's coefficient of correlation.

[2] = in water; literature; cited from earlier work
T. axei = experiment: anthelmintic efficacy in animals experimentally infected with Trichostrongylus axei; format: in vivo, Meriones unguiculatus
Experimental: as §1, §2

[3] = test system: Ascaridia galli (intestinal roundworm of chicken), larval stage 3 (L3); experiment: in vitro larval assay, minimum effective concentration; format: cell-based; settings: day 5, 20 larvae per well, microscopic examination
Experimental: (§3) Anthelmintic effects of the compounds of the present invention were tested in vitro using gut welling larval stages of two parasitic nematode species: Ascaridia galli (intestinal roundworm of chicken), larval stage 3 (L3), and Oesophagostomum dentatum (nodular worm of swine), larval stages 3 and 4 (L3; LA).
(§4) Principle of the assays: Various concentrations of compounds were incubated in 96 well microtiter plates, in which parasites were then distributed at 20 larvae per well. The anthelmintic effects were classified at day 5 by microscopic examination assessing mortality, damage, motility, progression of development and neutral red uptake by the larvae in comparison to a DMSO-control and the standard anthelmintics fenbendazole. The anthelmintic effects were defined by the minimum effective concentration (MEC) as reflected in table 1.

[4] = test system: Oesophagostomum dentatum (nodular worm of swine), larval stages 3 and 4; experiment: as above; format: cell-based; settings: day 5, 20 larvae per well
Experimental: as §3, §4

[5] = reported; cited from earlier work
[6] = 0.3 mg/kg BW once, IP (fenbendazole equivalent 0.3; Compound A 0.2 mg/kg)
[7] = 0.3 mg/kg BW once, PO (fenbendazole equivalent 0.3; Compound A 0.2 mg/kg)
[8] = 0.3 mg/kg BW once, SC (fenbendazole equivalent 0.3; Compound A 0.2 mg/kg)
[9] = 1 mg/kg BW once, IP (fenbendazole equivalent 1.0; Compound A 0.6 mg/kg)
[10] = 1 mg/kg BW once, PO (fenbendazole equivalent 1.0; Compound A 0.6 mg/kg)
[11] = 1 mg/kg BW once, SC (fenbendazole equivalent 1.0; Compound A 0.6 mg/kg)
[12] = 3 mg/kg BW once, IP (fenbendazole equivalent 3.0; Compound A 1.8 mg/kg)
[13] = 3 mg/kg BW once, IP (fenbendazole equivalent 3.0; Compound A 1.8 mg/kg), listed as Fenbendazole
[14] = 3 mg/kg BW once, PO (fenbendazole equivalent 3.0; Compound A 1.8 mg/kg)
[15] = 3 mg/kg BW once, PO (fenbendazole equivalent 3.0; Compound A 1.8 mg/kg), listed as Fenbendazole
[16] = 3 mg/kg BW once, SC (fenbendazole equivalent 3.0; Compound A 1.8 mg/kg)
[17] = 3 mg/kg BW once, SC (fenbendazole equivalent 3.0; Compound A 1.8 mg/kg), listed as Fenbendazole

solubility ([1]; water): ≥ 50 mM
Compound: CCCSc1ccc2c(c1)nc(NC(=O)OC)n2COP(=O)([O-])[O-].[Na+].[Na+] [(1-phosphonooxymethyl-5- and 6-propylsulfanyl-1(H)-benzoimidazol-2-yl)-carbamic acid methyl esters]

Compound: COC(=O)Nc1nc2ccc(Sc3ccccc3)cc2[nH]1 [fenbendazole, reference compound]
Reduction worm number (%) T. colubriformis (T. colubriformis; [6]): 79.33%
Reduction worm number (%) T. colubriformis (T. colubriformis; [7]): 68.75%
Reduction worm number (%) T. colubriformis (T. colubriformis; [8]): 43.18%
Reduction worm number (%) T. colubriformis (T. colubriformis; [9]): 80.04%
Reduction worm number (%) T. colubriformis (T. colubriformis; [10]): 80.04%
Reduction worm number (%) T. colubriformis (T. colubriformis; [11]): 81.10%
Reduction worm number (%) T. colubriformis (T. colubriformis; [12]): 100%
Reduction worm number (%) T. colubriformis (T. colubriformis; [13]): 100.00%
Reduction worm number (%) T. colubriformis (T. colubriformis; [14]): 100%
Reduction worm number (%) T. colubriformis (T. colubriformis; [15]): 100.00%
Reduction worm number (%) T. colubriformis (T. colubriformis; [16]): 100%
Reduction worm number (%) T. colubriformis (T. colubriformis; [17]): 100.00%
Reduction worm number (%) H. contortus larvae (Haemonchus contortus; [6]): 80.63%
Reduction worm number (%) H. contortus larvae (Haemonchus contortus; [7]): 91.73%
Reduction worm number (%) H. contortus larvae (Haemonchus contortus; [8]): 88.36%
Reduction worm number (%) H. contortus larvae (Haemonchus contortus; [9]): 89.33%
Reduction worm number (%) H. contortus larvae (Haemonchus contortus; [10]): 78.05%
Reduction worm number (%) H. contortus larvae (Haemonchus contortus; [11]): 89.16%
Reduction worm number (%) H. contortus larvae (Haemonchus contortus; [12]): 100.00%
Reduction worm number (%) H. contortus larvae (Haemonchus contortus; [14]): 96.49%
Reduction worm number (%) H. contortus larvae (Haemonchus contortus; [16]): 95.10%
solubility [2]: lower than 0.05 μg/mL
Reduction worm number (%) T. axei (T. axei; [6]): −283.85%
Reduction worm number (%) T. axei (T. axei; [7]): −115.44%
Reduction worm number (%) T. axei (T. axei; [8]): 82.15%
Reduction worm number (%) T. axei (T. axei; [9]): 80.94%
Reduction worm number (%) T. axei (T. axei; [10]): 88.80%
Reduction worm number (%) T. axei (T. axei; [11]): 82.15%
Reduction worm number (%) T. axei (T. axei; [12]): 100%
Reduction worm number (%) T. axei (T. axei; [13]): 100.00%
Reduction worm number (%) T. axei (T. axei; [14]): 100%
Reduction worm number (%) T. axei (T. axei; [15]): 100.00%
Reduction worm number (%) T. axei (T. axei; [16]): 100%
Reduction worm number (%) T. axei (T. axei; [17]): 100.00%
Minimum effective concentrations A. galli (L3) [3]: 0.050 µM
Minimum effective concentrations O. dentatum (L3) ([4]; L3): 1.000 µM
Minimum effective concentrations O. dentatum (L4) ([4]; L4): 0.025 µM

Compound: CCCSc1ccc([N+](=O)[O-])c(N/C(=N/CCS(=O)(=O)O)NC(=O)OC)c1 [netobimin]
embryonal toxicity [5]: reported to cause embryonal toxicity

Compound: COc1ccc2[nH]c([S+]([O-])Cc3ncc(C)c(OC)c3C)nc2c1 (centres unmarked) [omeprazole]
solubility [2]: 0.5 mg/mL (≈ 1450 µM)

Compound: (5- and 6-phenylsulfanyl-1-phosphonooxymethyl-1(H)-benzoimidazol-2-yl)-carbamic acid methyl esters [Compound A]
Reduction worm number (%) T. colubriformis (T. colubriformis; [6]): −50.17%
Reduction worm number (%) T. colubriformis (T. colubriformis; [7]): −3.71%
Reduction worm number (%) T. colubriformis (T. colubriformis; [8]): −106.50%
Reduction worm number (%) T. colubriformis (T. colubriformis; [9]): 28.18%
Reduction worm number (%) T. colubriformis (T. colubriformis; [10]): 37.27%
Reduction worm number (%) T. colubriformis (T. colubriformis; [11]): 68.61%
Reduction worm number (%) T. colubriformis (T. colubriformis; [12]): 93.26%
Reduction worm number (%) T. colubriformis (T. colubriformis; [14]): 100.00%
Reduction worm number (%) T. colubriformis (T. colubriformis; [16]): 85.70%
overall efficacy compared with fenbendazole (T. colubriformis; T. colubriformis, all doses and routes): same efficacy as treatment with fenbendazole
Reduction worm number (%) H. contortus larvae (Haemonchus contortus; [6]): 65.02%
Reduction worm number (%) H. contortus larvae (Haemonchus contortus; [7]): 87.00%
Reduction worm number (%) H. contortus larvae (Haemonchus contortus; [8]): 47.40%
Reduction worm number (%) H. contortus larvae (Haemonchus contortus; [9]): 90.65%
Reduction worm number (%) H. contortus larvae (Haemonchus contortus; [10]): 88.62%
Reduction worm number (%) H. contortus larvae (Haemonchus contortus; [11]): 87.61%
Reduction worm number (%) H. contortus larvae (Haemonchus contortus; [12]): 93.81%
Reduction worm number (%) H. contortus larvae (Haemonchus contortus; [14]): 90.81%
Reduction worm number (%) H. contortus larvae (Haemonchus contortus; [16]): 94.84%
overall efficacy compared with fenbendazole (Haemonchus contortus; H. contortus, all doses and routes): same efficacy as treatment with fenbendazole
Reduction worm number (%) T. axei (T. axei; [6]): 69.66%
Reduction worm number (%) T. axei (T. axei; [7]): 59.20%
Reduction worm number (%) T. axei (T. axei; [8]): −43.64%
Reduction worm number (%) T. axei (T. axei; 0.3 mg/kg BW once, SC (fenbendazole equivalent 0.3; Compound A 0.2 mg/kg), listed as compound A): 43.64%
Reduction worm number (%) T. axei (T. axei; [9]): 83.98%
Reduction worm number (%) T. axei (T. axei; [10]): 96.71%
Reduction worm number (%) T. axei (T. axei; [11]): 82.98%
Reduction worm number (%) T. axei (T. axei; [12]): 100.00%
Reduction worm number (%) T. axei (T. axei; 3 mg/kg BW once, IP (fenbendazole equivalent 3.0; Compound A 1.8 mg/kg), listed as compound A): 100%
Reduction worm number (%) T. axei (T. axei; [14]): 98.00%
Reduction worm number (%) T. axei (T. axei; [16]): 100.00%
Reduction worm number (%) T. axei (T. axei; 3 mg/kg BW once, SC (fenbendazole equivalent 3.0; Compound A 1.8 mg/kg), listed as compound A): 100%
overall efficacy compared with fenbendazole (T. axei; T. axei, all doses and routes): same efficacy as treatment with fenbendazole

Compound: (5- and 6-phenylsulfanyl-1-phosphonooxymethyl-1(H)-benzoimidazol-2-yl)-carbamic acid methyl esters di-sodium salts
solubility in water [1]: 132 mM and 67 g/L
